Where a SMILES comes first, the peptide text is derived from it. Bridges are numbered along the chain shown (N, C = ends). [ ]: non-standard residue; d: D form. The star is where a group is joined. hPhe(3-Cl-4-CF3) = N[C@@H](CCc1ccc(C(F)(F)F)c(Cl)c1)C(=O)O; NPrPhe(4-CF3) = CCCN[C@@H](Cc1ccc(C(F)(F)F)cc1)C(=O)O; NMeGly(cPent) = CN[C@H](C(=O)O)C1CCCC1; Hyp = O=C(O)[C@@H]1C[C@@H](O)CN1; NMeD = CN[C@@H](CC(=O)O)C(=O)O; NMeL = CN[C@@H](CC(C)C)C(=O)O; NMeAbu = CC[C@H](NC)C(=O)O; Morpholide = C1CN(*)CCO1; NMeA = CN[C@@H](C)C(=O)O; Piperidide = C1CCN(*)CC1; Ac5c = NC1(C(=O)O)CCCC1; Aze = O=C(O)[C@@H]1CCN1; Ac4c = NC1(C(=O)O)CCC1; Sar = CNCC(=O)O
Columns and labels:
[1] = molecular target: GDP-bound HRAS wild-type protein (Homo sapiens, UniProt P01112); test: Binding to HRAS by surface plasmon resonance (SPR), Single Cycle Kinetics
Sequence of GDP-bound HRAS wild-type protein (P01112 whole entry): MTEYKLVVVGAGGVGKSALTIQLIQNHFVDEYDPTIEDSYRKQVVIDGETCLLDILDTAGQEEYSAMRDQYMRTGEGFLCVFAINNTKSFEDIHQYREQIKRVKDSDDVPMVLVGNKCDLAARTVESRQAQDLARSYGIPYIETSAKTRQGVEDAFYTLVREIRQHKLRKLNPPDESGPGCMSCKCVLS

[2] = molecular target: GDP-bound NRAS wild-type protein (Homo sapiens, UniProt P01111); test: Binding to NRAS by surface plasmon resonance (SPR), Single Cycle Kinetics
Sequence of GDP-bound NRAS wild-type protein (P01111 whole entry): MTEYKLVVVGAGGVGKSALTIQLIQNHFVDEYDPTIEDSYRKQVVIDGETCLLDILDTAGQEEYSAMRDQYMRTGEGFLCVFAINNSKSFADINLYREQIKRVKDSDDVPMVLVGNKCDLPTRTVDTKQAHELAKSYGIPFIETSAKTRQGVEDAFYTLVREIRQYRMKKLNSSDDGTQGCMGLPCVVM

[3] = KD ratio, GDP-bound HRAS wild-type vs GDP-bound KRAS wild-type, SPR
[4] = KD ratio, GDP-bound NRAS wild-type vs GDP-bound KRAS wild-type, SPR
[5] = SPR, GDP-bound HRAS wild-type vs GDP-bound KRAS wild-type
[6] = SPR, GDP-bound NRAS wild-type vs GDP-bound KRAS wild-type

## CCO[C@@H]1C[C@H]2C(=O)NC3(CC(C)(C)C3)C(=O)N(C)[C@@H](C3CCCC3)C(=O)N(C)[C@H](C(=O)N3CCCCC3)CC(=O)N(C)[C@@H](COC)C(=O)N[C@@H]([C@@H](C)CC)C(=O)N(C)CC(=O)N(C)[C@H]3C/C=C\CCN(C3=O)[C@@H](Cc3ccc(C(F)(F)F)cc3)C(=O)N(C)CC(=O)N[C@@H](CCc3ccc(Cl)c(Cl)c3)C(=O)N2C1 [PP2670]
[1]; KD ratio HRAS/KRAS, class symbols
  HRAS/KRAS (ratio of KD value with respect to GDP-bound HRAS wild-type protein to KD value with respect to KRAS): A (a compound having 10 or more and less than 20 is denoted as A)
[2]; KD ratio NRAS/KRAS, class symbols
  NRAS/KRAS (ratio of KD value with respect to GDP-bound NRAS wild-type protein to KD value with respect to KRAS): AA (a compound having 20 or more is denoted as AA)

## CCCN1C(=O)CN(C)C(=O)CN(C)C(=O)[C@H]([C@@H](C)CC)NC(=O)[C@H](CC(C)C)N(C)C(=O)C[C@@H](C(=O)N2CCCCC2)N(C)C(=O)[C@H](C2CCCC2)N(C)C(=O)C2(CCC2)NC(=O)[C@@H]2CCCN2C(=O)[C@H](CCc2ccc(C(F)(F)F)c(Cl)c2)NC(=O)CN(C)C(=O)[C@@H]1Cc1ccc(C(F)(F)F)cc1 [PP1930] ([NMeL]I[Sar][Sar][NPrPhe(4-CF3)][Sar][hPhe(3-Cl-4-CF3)]P[Ac4c][NMeGly(cPent)][NMeD]-Piperidide; lactam N-11)
[1]; [3]
  HRAS/KRAS (ratio of KD value for HRAS to KD value for KRAS): C (A compound having a KD ratio of 0.1 or more and less than 3 is denoted as C)
[2]; [4]
  NRAS/KRAS (ratio of KD value for NRAS to KD value for KRAS): B (a compound having 3 or more and less than 10 is denoted as B)

## CCO[C@@H]1C[C@H]2C(=O)NC3(CC(C)(C)C3)C(=O)N(C)[C@@H](C(CC)CC)C(=O)N(C)[C@H](C(=O)N(C)C)CC(=O)N(C)[C@@H](C)C(=O)N[C@@H]([C@@H](C)CC)C(=O)N(C)CC(=O)N(C)[C@H]3C/C=C\CCN(C3=O)[C@@H](Cc3ccc(C)cc3)C(=O)N(C)CC(=O)N[C@@H](CCc3ccc(Cl)c(Cl)c3)C(=O)N2C1 [PP2186]
[1]; [5]
  HRAS/KRAS (ratio of KD value with respect to HRAS to KD value with respect to KRAS): A (a compound having 10 or more and less than 20 is denoted as A)
[2]; [6]
  NRAS/KRAS (ratio of KD value with respect to NRAS to KD value with respect to KRAS): AA (a compound having 20 or more is denoted as AA)

## CCCN1C(=O)[C@@H]2CCN2C(=O)CN(C)C(=O)[C@H]([C@@H](C)CC)NC(=O)[C@H](CC(C)C)N(C)C(=O)C[C@@H](C(=O)N(C)C)N(C)C(=O)[C@H](C2CCCC2)N(C)C(=O)C2(CCCC2)NC(=O)[C@@H]2C[C@@H](OCC)CN2C(=O)[C@H](CCc2ccc(C(F)(F)F)c(Cl)c2)NC(=O)CN(C)C(=O)[C@@H]1Cc1ccc(C(F)(F)F)cc1 [PP0444] ([NMeL]I[Sar][Aze][NPrPhe(4-CF3)][Sar][hPhe(3-Cl-4-CF3)][Hyp](Et)[Ac5c][NMeGly(cPent)][NMeD]-NMe2; lactam N-11)
[1]; KD ratio HRAS/KRAS, SPR
  HRAS/KRAS (ratio of KD value with respect to GDP-bound HRAS wild-type protein to KD value with respect to KRAS): C (A compound having a KD ratio of 0.1 or more and less than 3 is denoted as C)
[2]; KD ratio NRAS/KRAS, SPR
  NRAS/KRAS (ratio of KD value with respect to GDP-bound NRAS wild-type protein to KD value with respect to KRAS): C (A compound having a KD ratio of 0.1 or more and less than 3 is denoted as C)

## CCO[C@@H]1C[C@H]2C(=O)NC3(CCC3)C(=O)N(C)[C@@H](C3CCCC3)C(=O)N(C)[C@H](C(=O)N3CCOCC3)CC(=O)N(C)[C@@H](Cc3cccc(Cl)c3)C(=O)N[C@@H]([C@@H](C)CC)C(=O)N(C)CC(=O)N(C)[C@H]3CCCCCN(C3=O)[C@@H](Cc3ccc(C(F)(F)F)cc3)C(=O)N(C)CC(=O)N[C@@H](CCc3cc(F)c(C(F)(F)F)c(F)c3)C(=O)N2C1 [PP0857]
[1]; [3]
  HRAS/KRAS (ratio of KD value with respect to HRAS to KD value with respect to KRAS): B (a compound having 3 or more and less than 10 is denoted as B)
[2]; [4]
  NRAS/KRAS (ratio of KD value with respect to NRAS to KD value with respect to KRAS): B (a compound having 3 or more and less than 10 is denoted as B)

## CCCN1C(=O)[C@@H]2CCN2C(=O)[C@H](C)N(C)C(=O)[C@H]([C@@H](C)CC)NC(=O)[C@H](CC)N(C)C(=O)C[C@@H](C(=O)N2CCOCC2)N(C)C(=O)[C@H](C2CCCC2)N(C)C(=O)C2(CCCC2)NC(=O)[C@@H]2CCCN2C(=O)[C@H](CCc2ccc(C(F)(F)F)c(Cl)c2)NC(=O)CN(C)C(=O)[C@@H]1Cc1ccc(C(F)(F)F)cc1 [PP0194] ([NMeAbu]I[NMeA][Aze][NPrPhe(4-CF3)][Sar][hPhe(3-Cl-4-CF3)]P[Ac5c][NMeGly(cPent)][NMeD]-Morpholide; lactam N-11)
[1]; KD ratio HRAS/KRAS, SPR
  HRAS/KRAS (ratio of KD for GDP-bound HRAS wild-type to KD for KRAS): B (a compound having 3 or more and less than 10 is denoted as B)
[2]; KD ratio NRAS/KRAS, SPR
  NRAS/KRAS (ratio of KD for GDP-bound NRAS wild-type to KD for KRAS): C (A compound having a KD ratio of 0.1 or more and less than 3 is denoted as C)

## CCO[C@@H]1C[C@H]2C(=O)NC3(CC(C)(C)C3)C(=O)N(C)[C@@H](C(CC)CC)C(=O)N(C)[C@H](C(=O)N(C)C)CC(=O)N(C)[C@@H](COC)C(=O)N[C@@H]([C@@H](C)CC)C(=O)N(C)CC(=O)N(C)[C@H]3C/C=C\CCN(C3=O)[C@@H](CC3CCC(F)(F)CC3)C(=O)N(C)CC(=O)N[C@@H](CCc3ccc(C(F)(F)F)c(OC)c3)C(=O)N2C1 [PP2438]
[1]; [5]
  HRAS/KRAS (ratio of KD value with respect to HRAS to KD value with respect to KRAS): A (a compound having 10 or more and less than 20 is denoted as A)
[2]; [6]
  NRAS/KRAS (ratio of KD value with respect to NRAS to KD value with respect to KRAS): A (a compound having 10 or more and less than 20 is denoted as A)

From patent publication US20250230193A1, “CYCLIC COMPOUND HAVING SELECTIVE KRAS INHIBITORY EFFECT ON HRAS AND NRAS” (CHUGAI SEIYAKU KABUSHIKI KAISHA, priority 2022, published 2025)
